Inconclusive results and toxic doses are left out. No stated cut-off is given here; in the data, active means T/C of 150% or more; inactive means T/C below 125%.
Tested on: L1210 leukemia ip in BDF1 mice, survival T/C
Experiment: NCI In Vivo Anticancer Drug Screen. Data for tumor model L1210 Leukemia (intraperitoneal) in B6D2F1 (BDF1) mice
Conditions: higher = longer survival
Summary of the method: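 Tumor cells were implanted, animals were treated, and survival was followed. The result divides the treated measurement by the vehicle-control measurement.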

[1] = endpoint: mean survival time, dose: 100.0 mg/kg/injection, schedule: Q01DX009 (ip), vehicle: Klucel (hydroxypropylcellulose) (HPC)
[2] = endpoint: mean survival time, dose: 200.0 mg/kg/injection, schedule: Q01DX009 (ip), vehicle: Klucel (hydroxypropylcellulose) (HPC)
[3] = endpoint: mean survival time, dose: 400.0 mg/kg/injection, schedule: Q01DX009 (ip), vehicle: Klucel (hydroxypropylcellulose) (HPC)
[4] = endpoint: mean survival time, dose: 100.0 mg/kg/injection, schedule: Q04DX003 (ip), vehicle: Klucel (hydroxypropylcellulose) (HPC)
[5] = endpoint: mean survival time, dose: 200.0 mg/kg/injection, schedule: Q04DX003 (ip), vehicle: Klucel (hydroxypropylcellulose) (HPC)
[6] = endpoint: mean survival time, dose: 100.0 mg/kg/injection, schedule: Q01DX001 (ip), vehicle: Klucel (hydroxypropylcellulose) (HPC)
[7] = endpoint: mean survival time, dose: 200.0 mg/kg/injection, schedule: Q01DX001 (ip), vehicle: Klucel (hydroxypropylcellulose) (HPC)
[8] = endpoint: mean survival time, dose: 400.0 mg/kg/injection, schedule: Q01DX001 (ip), vehicle: Klucel (hydroxypropylcellulose) (HPC)

Measured: T/C

CC(=O)OC1(C)CC(C)C(=O)C(C(O)CC2CC(=O)NC(=O)C2)C1 (stereo unspecified)
inactive: endpoint: mean survival time, dose: 0.05 mg/kg/injection, schedule: Q01DX009 (ip), vehicle: saline with Tween-80 108 % of control | endpoint: mean survival time, dose: 0.06 mg/kg/injection, schedule: Q01DX009 (ip), vehicle: water 107 % of control | endpoint: mean survival time, dose: 0.1 mg/kg/injection, schedule: Q01DX009 (ip), vehicle: saline with Tween-80 114 % of control | endpoint: mean survival time, dose: 0.12 mg/kg/injection, schedule: Q01DX009 (ip), vehicle: saline 117 % of control | endpoint: mean survival time, dose: 0.15 mg/kg/injection, schedule: Q01DX009 (ip), vehicle: saline with Tween-80 91 % of control | endpoint: mean survival time, dose: 0.15 mg/kg/injection, schedule: Q01DX009 (ip), vehicle: saline 120 % of control | endpoint: mean survival time, dose: 0.2 mg/kg/injection, schedule: Q01DX009 (ip), vehicle: saline with Tween-80 120 % of control | endpoint: mean survival time, dose: 0.25 mg/kg/injection, schedule: Q01DX009 (ip), vehicle: saline 109 % of control | endpoint: mean survival time, dose: 0.3 mg/kg/injection, schedule: Q01DX009 (ip), vehicle: saline 118 % of control | endpoint: mean survival time, dose: 0.5 mg/kg/injection, schedule: Q01DX009 (ip), vehicle: saline 96 % of control | endpoint: mean survival time, dose: 0.5 mg/kg/injection, schedule: Q01DX009 (ip), vehicle: water 108 % of control | endpoint: mean survival time, dose: 0.5 mg/kg/injection, schedule: Q04DX003 (ip), vehicle: water 108 % of control | endpoint: mean survival time, dose: 1.0 mg/kg/injection, schedule: Q01DX009 (ip), vehicle: water 100 % of control | endpoint: mean survival time, dose: 1.0 mg/kg/injection, schedule: Q04DX003 (ip), vehicle: saline 115 % of control | endpoint: mean survival time, dose: 1.0 mg/kg/injection, schedule: Q04DX003 (ip), vehicle: water 109 % of control | endpoint: mean survival time, dose: 1.2 mg/kg/injection, schedule: Q01DX009 (ip), vehicle: saline 115 % of control | endpoint: mean survival time, dose: 2.0 mg/kg/injection, schedule: Q01DX001 (ip), vehicle: saline 102 % of control | endpoint: mean survival time, dose: 2.0 mg/kg/injection, schedule: Q04DX003 (ip), vehicle: saline 116 % of control | endpoint: mean survival time, dose: 2.0 mg/kg/injection, schedule: Q04DX003 (ip), vehicle: water 108 % of control | endpoint: mean survival time, dose: 2.0 mg/kg/injection, schedule: Q08DX002 (ip), vehicle: saline 102 % of control | endpoint: mean survival time, dose: 4.0 mg/kg/injection, schedule: Q01DX001 (ip), vehicle: saline 100 % of control | endpoint: mean survival time, dose: 4.0 mg/kg/injection, schedule: Q04DX003 (ip), vehicle: saline 114 % of control | endpoint: mean survival time, dose: 4.0 mg/kg/injection, schedule: Q04DX003 (ip), vehicle: water 100 % of control | endpoint: mean survival time, dose: 4.0 mg/kg/injection, schedule: Q08DX002 (ip), vehicle: saline 98 % of control | endpoint: mean survival time, dose: 8.0 mg/kg/injection, schedule: Q01DX001 (ip), vehicle: saline 109 % of control | endpoint: mean survival time, dose: 8.0 mg/kg/injection, schedule: Q08DX002 (ip), vehicle: saline 100 % of control | endpoint: mean survival time, dose: 62.5 micrograms/kg/injection, schedule: Q01DX009 (ip), vehicle: saline 115 % of control | endpoint: mean survival time, dose: 125.0 micrograms/kg/injection, schedule: Q01DX009 (ip), vehicle: saline 123 % of control | endpoint: mean survival time, dose: 125.0 micrograms/kg/injection, schedule: Q03HX008 (ip), vehicle: saline 104 % of control | endpoint: mean survival time, dose: 125.0 micrograms/kg/injection, schedule: Q03HX016 (ip), vehicle: saline 123 % of control | endpoint: mean survival time, dose: 250.0 micrograms/kg/injection, schedule: Q01DX009 (ip), vehicle: saline 101 % of control | endpoint: mean survival time, dose: 250.0 micrograms/kg/injection, schedule: Q03HX008 (ip), vehicle: saline 112 % of control | endpoint: median survival time, dose: 1.0 mg/kg/injection, schedule: Q04DX003 (ip), vehicle: saline 103 % of control | endpoint: median survival time, dose: 2.0 mg/kg/injection, schedule: Q04DX003 (ip), vehicle: saline 105 % of control | endpoint: median survival time, dose: 4.0 mg/kg/injection, schedule: Q04DX003 (ip), vehicle: saline 106 % of control | endpoint: median survival time, dose: 8.0 mg/kg/injection, schedule: Q04DX003 (ip), vehicle: saline 114 % of control

Nc1cnccc1N1CCN(c2cccc3ccccc23)CC1
active: endpoint: mean survival time, dose: 100.0 mg/kg/injection, schedule: Q01DX009 (ip), vehicle: saline with Tween-80 155 % of control
inactive: endpoint: mean survival time, dose: 44.0 mg/kg/injection, schedule: Q01DX009 (ip), vehicle: saline with Tween-80 98 % of control | endpoint: mean survival time, dose: 67.0 mg/kg/injection, schedule: Q01DX009 (ip), vehicle: saline with Tween-80 93 % of control | endpoint: mean survival time, dose: 100.0 mg/kg/injection, schedule: Q04DX003 (ip), vehicle: saline with Tween-80 98 % of control | endpoint: mean survival time, dose: 200.0 mg/kg/injection, schedule: Q04DX003 (ip), vehicle: saline with Tween-80 96 % of control | endpoint: mean survival time, dose: 400.0 mg/kg/injection, schedule: Q04DX003 (ip), vehicle: saline with Tween-80 89 % of control

Cc1cc(C)c(NS(=O)(=O)c2ccc(Cl)cc2)cc1C
inactive: [1] 108 % of control | [2] 106 % of control | [3] 100 % of control

O=C(CC(O)(C(F)(F)F)C(F)(F)F)c1ccc(Br)cc1
inactive: endpoint: mean survival time, dose: 100.0 mg/kg/injection, schedule: Q04DX003 (ip), vehicle: other 98 % of control | endpoint: mean survival time, dose: 200.0 mg/kg/injection, schedule: Q04DX003 (ip), vehicle: other 106 % of control | endpoint: mean survival time, dose: 400.0 mg/kg/injection, schedule: Q04DX003 (ip), vehicle: other 93 % of control

CC(=O)Nc1c([N+](=O)[O-])cc2c3c(cccc13)C=C2
inactive: endpoint: mean survival time, dose: 200.0 mg/kg/injection, schedule: Q01DX009 (ip), vehicle: saline with Tween-80 96 % of control | endpoint: mean survival time, dose: 400.0 mg/kg/injection, schedule: Q01DX009 (ip), vehicle: saline with Tween-80 96 % of control

CCCCOC(=O)c1ccc(NC(=O)NC)cc1
inactive: [1] 100 % of control | [2] 101 % of control | [3] 101 % of control

CC(=O)Nc1ccc(OC(=O)Nc2cccc3ccccc23)cc1
inactive: [4] 89 % of control | [5] 96 % of control

O=C(O)c1cc(O)c(Br)c(O)c1
inactive: endpoint: mean survival time, dose: 75.0 mg/kg/injection, schedule: Q01DX009 (ip), vehicle: other 93 % of control | endpoint: mean survival time, dose: 100.0 mg/kg/injection, schedule: Q04DX003 (ip), vehicle: saline 106 % of control | endpoint: mean survival time, dose: 150.0 mg/kg/injection, schedule: Q01DX009 (ip), vehicle: other 96 % of control | endpoint: mean survival time, dose: 200.0 mg/kg/injection, schedule: Q04DX003 (ip), vehicle: saline 101 % of control | endpoint: mean survival time, dose: 400.0 mg/kg/injection, schedule: Q04DX003 (ip), vehicle: saline 95 % of control

CCCC1C2=C(C(=O)OC2=O)C2C(CC)CC3=C(C(=O)OC3=O)C12 (stereo unspecified)
inactive: endpoint: mean survival time, dose: 12.5 mg/kg/injection, schedule: Q01DX001 (ip), vehicle: Klucel (hydroxypropylcellulose) (HPC) 90 % of control | endpoint: mean survival time, dose: 25.0 mg/kg/injection, schedule: Q01DX001 (ip), vehicle: Klucel (hydroxypropylcellulose) (HPC) 94 % of control | endpoint: mean survival time, dose: 50.0 mg/kg/injection, schedule: Q01DX001 (ip), vehicle: Klucel (hydroxypropylcellulose) (HPC) 94 % of control | endpoint: mean survival time, dose: 56.25 mg/kg/injection, schedule: Q04DX003 (ip), vehicle: Klucel (hydroxypropylcellulose) (HPC) 97 % of control | [6] 95 % of control | endpoint: mean survival time, dose: 112.5 mg/kg/injection, schedule: Q04DX003 (ip), vehicle: Klucel (hydroxypropylcellulose) (HPC) 95 % of control | endpoint: mean survival time, dose: 150.0 mg/kg/injection, schedule: Q01DX001 (ip), vehicle: Klucel (hydroxypropylcellulose) (HPC) 89 % of control | endpoint: mean survival time, dose: 225.0 mg/kg/injection, schedule: Q01DX001 (ip), vehicle: Klucel (hydroxypropylcellulose) (HPC) 97 % of control | endpoint: mean survival time, dose: 225.0 mg/kg/injection, schedule: Q04DX003 (ip), vehicle: Klucel (hydroxypropylcellulose) (HPC) 94 % of control

CCOC(=O)c1[nH]c(C)c(CCC(=O)O)c1C
inactive: endpoint: mean survival time, dose: 12.0 mg/kg/injection, schedule: Q04DX003 (ip), vehicle: Klucel (hydroxypropylcellulose) (HPC) 95 % of control | endpoint: mean survival time, dose: 25.0 mg/kg/injection, schedule: Q04DX003 (ip), vehicle: Klucel (hydroxypropylcellulose) (HPC) 98 % of control | endpoint: mean survival time, dose: 50.0 mg/kg/injection, schedule: Q04DX003 (ip), vehicle: Klucel (hydroxypropylcellulose) (HPC) 104 % of control | [6] 97 % of control | [4] 103 % of control | [7] 97 % of control | [5] 98 % of control | [8] 101 % of control

O=C(Nc1ccccc1F)OCCOc1ccc(-c2ccccc2)cc1
inactive: [1] 96 % of control | [2] 95 % of control | [3] 98 % of control

CCOC(=O)c1c(-c2ccccc2)cn2c1OC(C)CC2(C)C (stereo unspecified)
inactive: [6] 105 % of control | [7] 100 % of control | [8] 93 % of control

O=[N+]([O-])c1c(Cl)cc(Cl)c([N+](=O)[O-])c1Cl
inactive: [4] 94 % of control | [5] 90 % of control | endpoint: mean survival time, dose: 400.0 mg/kg/injection, schedule: Q04DX003 (ip), vehicle: Klucel (hydroxypropylcellulose) (HPC) 94 % of control

From PubChem BioAssay AID248 (DTP/NCI, 2004)
